According to patent EP3892734B1, “SCREENING METHODS AND THERAPEUTIC APPLICATIONS BASED ON BACTERIAL MOTILITY INHIBITION” (Ludwig-Maximilians-Universität München, priority 2020, dated 2021):
≈ marks a conversion by molar mass, not a printed value. Where “and” joins values, the source holds several entries; their conditions need not be identical. Identical values can stand only once. Entries after “also recorded” stand apart in the source; their conditions may differ. Like-named read-outs stand apart in the source and are kept apart here.

Columns and labels:
[1] = tested on: H. pylori flaA-luciferase reporter strain N6; experiment: microbe, parasite or virus in culture; assay type: cell-based, Helicobacter pylori
Excerpt: The H. pylori flaA promoter was fused with a luciferase operon (luxAB) from Vibrio harveyi in a H. pylori suicide plasmid (Niehus, Ye, Suerbaum, & Josenhans, 2002). The flaA reporter fusion was recombined into the H. pylori chromosome and the resulting strain tested to be strongly luminescence positive. The reporter strain (N6 flaA-lux4B) activated luminescence to about 40,000 to 60,000 counts per second using luciferase substrate at an OD600 of 0.8 (mid-log phase) in liquid culture. The negative control value of a non-reporter strain or reporter strain without luminescence substrate was close to zero. […] The Z-Factor (Zhang et al., 1999) determined for the assay with various bacterial inhibitors measured in quadruplicates or triplicates was routinely between 0.6 and 0.7, with a confidence interval of 95%.
H. pylori luminescence reporter strains were passaged on blood agar plates less than 22 hours prior to the start of the experiment. The passage number for these assays was not higher than five to preserve the strain's properties and genetic stability. Luciferase reaction buffer was prepared as follows: 50 mM disodium phosphate (Na2HPO4) and 2% BSA were dissolved in HPLC water, filter sterilized, aliquoted and frozen at - 20°C.
Bacteria were harvested in brain-heart infusion medium (BHI, 3% yeast extract with 5% horse serum added) and adjusted to an OD600 of 0.8 at room temperature. 50 µl of the bacterial suspension were added per well of a 96 well plate (non-binding, Greiner Bio-One 655901). 2 µl of each of the test compounds (provided as a 10 mM DMSO solution) were added to the sample wells. The same amount of pure, diluted DMSO was added to the control wells for a concentration of a maximum of 4% DMSO per well, since higher concentrations will interfere with metabolic functions of H. pylori and cause false negative results. The microwell plate was incubated inside a sterile sealed PM Gas Bag (BIOLOG #3032) together with a CampyGen Compact pack (Oxoid) to generate microaerobic conditions at 37°C and with shaking at 175 rpm for 4 h.
Shortly before taking the measurement, the luciferase substrate was prepared by diluting the luminescence substrate decanal (10% stock, Sigma Aldrich) at a 1 :2,000 dilution in luciferase reaction buffer. 60 µl of the substrate were added per well of a white 96 microwell plate (Thermo Scientific #236105) without the lid.
For the final luciferase measurement, 10 µl of bacterial solution were transferred with the epMotion 96 (Eppendorf) simultaneously to the wells containing the luciferase substrate and incubated on a microwell plate shaker for 10 s to lyse the bacteria. The measurements were recorded with a Perkin Elmer Victor 3/WNallac 1420 plate reader (luminometry, measurement time: 0.5 sec) and integrated to counts per sec. For the background measurement, 10 µl sterile medium containing 4% DMSO was added to the wells. For each measurement, at least four luciferase reporter positive control wells (without inhibitory compound) and four negative control wells (background without bacteria) were run on the same day and under the same assay conditions in parallel.

H. pylori N6 = experiment: vitality / metabolic (respiratory inhibition) counter-screen; assay type: cell-based, Helicobacter pylori; conditions: > 100% indicates no inhibition
H. pylori = experiment: therapeutic treatment in chronic H. pylori mouse infection model (cfu counts, cagL PCR); assay type: in vivo, C57B/L6 mice; conditions: for reduction of colony-forming units (cfus) / bacterial loads in stomach: metronidazole 14.3 mg/kg/day, intragastric gavage
Method: 6-8 weeks old specific pathogen-free C57B/L6 mice were obtained from Charles River Laboratories. They were acclimatized to the new surroundings for one week before starting the assays. For the whole duration of the experiment, mice had access to sterile chow and sterile water ad libitum. In week one of the experiment, H. pylori was administered at 3×10^8 bacteria per mouse per inoculum (100 µl) on two days with one day of break in between. The proof-of-principle treatment was started two weeks after the end of the inoculation week, assuming a stable infection at this time point. The mice were treated in separate groups (8-14 animals per group), as outlined in the results, with compound(s), antibiotic (metronidazole at 14.3 mg/kg/day), a combination of both antibiotic and compound (for concentrations, see Results), or mock-treated once daily over seven consecutive days by intra-gastric gavage. After the treatment week, the mice were kept for another two weeks under normal housing and feeding conditions with sterilized chow and sterile water ad libitum. At the end of the assay period (week seven), the mice were necropsied by cervical dislocation under CO2 anesthesia. The animal experiments were authorized under German federal law by the LAVES (Lower Saxony Government Authority).
Then, BL2 was further tested for therapeutic efficacy in a mouse model of chronic H. pylori infection (Fig. 5). Six groups of mice (10 mice per group in each of the four infected and/or treated groups, and six mice in both of the control groups) were established in this mouse treatment trial. For the treatment groups, mice were infected in week one (using ca. 3×10^8 bacteria per animal; Methods), and the chronic infection was manifested for two more weeks. The once-daily treatment (intragastric gavage) started in week four on seven consecutive days. For the treatment groups, three H. pylori-infected groups were evaluated in parallel. One dose of treatment was given daily.
Group one was treated with metronidazole (14.3 mg/kg/day) only, an established anti-H. pylori antibiotic. The antibiotic concentration corresponds to concentrations routinely used in human treatment. Group two was treated with metronidazole (dosed at 14.3 mg/kg/day) and BL2 (10 mg/kg/day) in combination, and group three received BL2 (10 mg/kg/day) only. In addition, one infected and mock-treated group was kept as positive control, and two mock-infected groups were set aside, one for administering BL2 only (10 mg/kg/day; microbiota compound control) and one which was mock-infected and mock-treated (microbiota null control).
The read-out of successful treatment was the reduction of colony-forming units (cfus) of bacteria in infected and treated mice, over infected, non-treated, mice, at the end of the experiment. […] All mice in the infected positive control group were colonized (both cfu counts and PCR-positive), although the cfu counts in three positive animals were rather low.

[2] = plasma cytokine analysis by Bioplex multiplex bead assay in treated mice; assay type: in vivo, C57B/L6 mice; conditions: chronic mouse infection model, BioRad Bioplex assay
Method: Before the infection and at the end of the treatment experiment, mouse blood was taken from the eye vein of a few selected mice (approximately 30 to 100 µl per mouse). The blood plasma was subsequently separated from cells using separation centrifugation devices (Sarstedt Microvette lithium-heparin). Plasma was diluted in Biorad Bioplex assay buffer to one fourth of the initial concentration and measured in the 23-Plex BioPlex bead-based multiplex cytokine assay (Biorad #m60009rdpd) according to the manufacturer's instructions and using the provided standards. Each sample was measured in a total volume of 50 µl in duplicate.

[3] = BL2 10 mg/kg/day, once daily, 7 days, versus infected control

With `Cn1c(CSC(=N)N)c(Cl)c(=O)n1-c1ccccc1` [Active 2] the IC50 ([1]; H. pylori flaA-luciferase reporter strain N6, Table 6) was 2.75 µg/mL (≈ 9.27 µM), the “Luciferase assay (% of control)” value ([1]; H. pylori screen) was 2,6 % of control and the IC50 ([1]; Helicobacter pylori, H. pylori flaA-luciferase reporter strain N6, Table 6) was < 4.5 µg/mL. For the same molecule, the IC50 ([1]; Helicobacter pylori, read-out: IC50 (luciferase assay), luciferase flagellar reporter assay, Table 3) was 2.74 µg/mL and 8 µM, the “inhibitory activity in luciferase reporter assay” value ([1]; result in words) was “strong inhibitor in the primary anti-flagellar reporter screen” and the “Metabolic assay (% of control)” value (H. pylori N6) was 102,2 % of control. The “reduction of colony-forming units (cfus) / bacterial loads in stomach” value (H. pylori; BL2 10 mg/kg/day, once daily, 7 days, versus infected control, listed as BL2) was “therapeutically effective; also recorded: significant activity in vivo; also recorded: significant therapeutic activity; also recorded: significantly effective in reducing bacterial loads”, the “reduction of colony-forming units (cfus) / bacterial loads in stomach” value (H. pylori; BL2 10 mg/kg/day, once daily, 7 days, versus infected control, listed as active 2/BL2) was “therapeutically active” and the “cfu counts in the antrum” value (H. pylori; [3]) was “statistically significant reduction of cfu counts in the antrum”. The “cfus in the corpus” value (H. pylori; [3]) was “trend towards reduced cfus”, the “gene-specific (cagL) PCR signal in stomach homogenates” value (H. pylori; two weeks post-treatment, listed as BL2) was “strong reduction of gene-specific PCR signal; also recorded: below detection levels” and the plasma cytokine loads [2] was “No significant change of plasma cytokine loads”.
